row,SMILES,melting point
1,"CN(C)c1cc2c(cc1Cl)NC(=O)CC(c1cccc(-c3cc(CO)nn3C)c1)=N2 [Example 39, 8-Chloro-7-dimethylamino-4-[3-(5-hydroxymethyl-2-methyl-2H-pyrazol-3-yl)-phenyl]-1,3-dihydro-benzo[b][1,4]diazepin-2-one]",184 °C
2,"N#Cc1cc(C2=Nc3cc(N4CCCC4)c(C(F)(F)F)cc3NC(=O)C2)ccn1 [Example 40, 4-(4-Oxo-8-pyrrolidin-1-yl-7-trifluoromethyl-4,5-dihydro-3H-benzo[b][1,4]diazepin-2-yl)-pyridine-2-carbonitrile]",188 °C (dec.)
3,"O=C1CC(c2cccc(-n3nncc3CO)c2)=Nc2cc(N3CCCC3)c(C(F)(F)F)cc2N1 [Example 41, 4-[3-(5-Hydroxymethyl-[1,2,3]triazol-1-yl)-phenyl]-7-pyrrolidin-1-yl-8-trifluoromethyl-1,3-dihydro-benzo[b][1,4]diazepin-2-one]",134 °C
4,"CN(C)c1cc2c(cc1F)NC(=O)CC(c1cccc(-n3nncc3CO)c1)=N2 [Example 42, 7-Dimethylamino-8-fluoro-4-[3-(5-hydroxymethyl-[1,2,3]triazol-1-yl)-phenyl]-1,3-dihydro-benzo[b][1,4]diazepin-2-one]",75 °C
5,"CN(C)Cc1cnnn1-c1cccc(C2=Nc3cc(N(C)C)c(F)cc3NC(=O)C2)c1 [Example 43, 7-Dimethylamino-4-[3-(5-dimethylaminomethyl-[1,2,3]triazol-1-yl)-phenyl]-8-fluoro-1,3-dihydro-benzo[b][1,4]diazepin-2-one]",181 °C
6,"CN(C)c1cc2c(cc1F)NC(=O)CC(c1cccc(-c3cc(CO)no3)c1)=N2 [Example 44, 7-Dimethylamino-8-fluoro-4-[3-(3-hydroxymethyl-isoxazol-5-yl)-phenyl]-1,3-dihydro-benzo[b][1,4]diazepin-2-one]",187 °C
7,"CN(C)c1cc2c(cc1Cl)NC(=O)CC(c1cccc(-n3nncc3CN3CCCC3)c1)=N2 [Example 45, 8-Chloro-7-dimethylamino-4-[3-(5-pyrrolidin-1-ylmethyl-[1,2,3]triazol-1-yl)-phenyl]-1,3-dihydro-benzo[b][1,4]diazepin-2-one]",180 to 182 °C
8,"CN(C)c1cc2c(cc1Cl)NC(=O)CC(c1cccc(-n3nncc3CN3CCC3)c1)=N2 [Example 48, 4-[3-(5-Azetidin-1-ylmethyl-[1,2,3]triazol-1-yl)-phenyl]-8-chloro-7-dimethylamino-1,3-dihydro-benzo[b][1,4]diazepin-2-one]",153 °C
9,"CN(C)c1cc2c(cc1Cl)NC(=O)CC(c1cccc(-c3cc(CO)on3)c1)=N2 [Example 49, 8-Chloro-7-dimethylamino-4-[3-(5-hydroxymethyl-isoxazol-3-yl)-phenyl]-1,3-dihydro-benzo[b][1,4]diazepin-2-one]",211 °C (dec.)
10,"O=C1CC(c2cccc(-n3nncc3CO)c2)=Nc2cc(N3CCCCC3)c(Cl)cc2N1 [Example 50, 8-Chloro-4-[3-(5-hydroxymethyl-[1,2,3]triazol-1-yl)-phenyl]-7-piperidin-1-yl-1,3-dihydro-benzo[b][1,4]diazepin-2-one]",246 °C (dec.)
11,"CN(C)c1cc2c(cc1C(F)(F)F)NC(=O)CC(c1cccc(-c3cc(CO)on3)c1)=N2 [Example 51, 7-Dimethylamino-4-[3-(5-hydroxymethyl-isoxazol-3-yl)-phenyl]-8-trifluoromethyl-1,3-dihydro-benzo[b][1,4]diazepin-2-one]",211 °C (dec.)
12,"CN(C)c1cc2c(cc1C(F)(F)F)NC(=O)CC(c1cccc(-c3cc(CN4CCCC4)no3)c1)=N2 [Example 53, 7-Dimethylamino-4-[3-(3-pyrrolidin-1-ylmethyl-isoxazol-5-yl)-phenyl]-8-trifluoromethyl-1,3-dihydro-benzo[b][1,4]diazepin-2-one]",160 °C
13,"CN(C)Cc1cc(-c2cccc(C3=Nc4cc(N(C)C)c(C(F)(F)F)cc4NC(=O)C3)c2)on1 [Example 55, 7-Dimethylamino-4-[3-(3-dimethylaminomethyl-isoxazol-5-yl)-phenyl]-8-trifluoromethyl-1,3-dihydro-benzo[b][1,4]diazepin-2-one]",160 °C
14,"N#Cc1cc(C2=Nc3cc(N4CCCC4)c(F)cc3NC(=O)C2)ccn1 [Example 56, 4-(7-Fluoro-4-oxo-8-pyrrolidin-1-yl-4,5-dihydro-3H-benzo[b][1,4]diazepin-2-yl)-pyridine-2-carbonitrile]",278 to 279 °C
15,"Cc1cc(-c2cccc(C3=Nc4cc(N5CCCC5)c(F)cc4NC(=O)C3)c2)on1 [Example 57, 8-Fluoro-4-[3-(3-methyl-isoxazol-5-yl)-phenyl]-7-pyrrolidin-1-yl-1,3-dihydro-benzo[b][1,4]diazepin-2-one]",236 °C
16,"O=C1CC(c2cccc(-n3nncc3CO)c2)=Nc2cc(N3CCCC3)c(F)cc2N1 [Example 58, 8-Fluoro-4-[3-(5-hydroxymethyl-[1,2,3]triazol-1-yl)-phenyl]-7-pyrrolidin-1-yl-1,3-dihydro-benzo[b][1,4]diazepin-2-one]",184 to 185 °C

row,SMILES,melting point
1,"N#Cc1cc(C2=Nc3cc(N4CCC4)c(Cl)cc3NC(=O)C2)ccn1 [Example 59, 4-(8-Azetidin-1-yl-7-chloro-4-oxo-4,5-dihydro-3H-benzo[b][1,4]diazepin-2-yl)-pyridine-2-carbonitrile]",276 °C
2,"O=C1CC(c2cccc(-c3cc(CO)on3)c2)=Nc2cc(N3CCCC3)c(C(F)(F)F)cc2N1 [Example 60, 4-[3-(5-Hydroxymethyl-isoxazol-3-yl)-phenyl]-7-pyrrolidin-1-yl-8-trifluoromethyl-1,3-dihydro-benzo[b][1,4]diazepin-2-one]",206 to 208 °C
3,"N#Cc1cc(C2=Nc3cc(N4CCC4)c(C(F)(F)F)cc3NC(=O)C2)ccn1 [Example 61, 4-(8-Azetidin-1-yl-4-oxo-7-trifluoromethyl-4,5-dihydro-3H-benzo[b][1,4]diazepin-2-yl)-pyridine-2-carbonitrile]",241 °C
4,"Cc1cc(-c2cccc(C3=Nc4cc(N5CCC5)c(C(F)(F)F)cc4NC(=O)C3)c2)on1 [Example 62, 7-Azetidin-1-yl-4-[3-(3-methyl-isoxazol-5-yl)-phenyl]-8-trifluoromethyl-1,3-dihydro-benzo[b][1,4]diazepin-2-one]",239 °C (dec.)
5,"O=C1CC(c2cccc(-n3nncc3CO)c2)=Nc2cc(N3CCC3)c(C(F)(F)F)cc2N1 [Example 63, 7-Azetidin-1-yl-4-[3-(5-hydroxymethyl-[1,2,3]triazol-1-yl)-phenyl]-8-trifluoromethyl-1,3-dihydro-benzo[b][1,4]diazepin-2-one]",202 °C (dec.)
6,"CN(C)c1cc2c(cc1C(F)(F)F)NC(=O)CC(c1cccc(-n3cccn3)c1)=N2 [Example 64, 7-Dimethylamino-4-(3-pyrazol-1-yl-phenyl)-8-trifluoromethyl-1,3-dihydro-benzo[b][1,4]diazepin-2-one]",176 °C
7,"CN(C)c1cc2c(cc1C(F)(F)F)NC(=O)CC(c1cccc(-n3cnnc3)c1)=N2 [Example 65, 7-Dimethylamino-4-(3-[1,2,4]triazol-4-yl-phenyl)-8-trifluoromethyl-1,3-dihydro-benzo[b][1,4]diazepin-2-one]",247 to 250 °C
8,"CN(C)c1cc2c(cc1C(F)(F)F)NC(=O)CC(c1cccc(-n3ccnc3)c1)=N2 [Example 66, 7-Dimethylamino-4-(3-imidazol-1-yl-phenyl)-8-trifluoromethyl-1,3-dihydro-benzo[b][1,4]diazepin-2-one]",203 to 205 °C
9,"CN(C)c1cc2c(cc1Cl)NC(=O)CC(c1cccc(-n3cc(CO)cn3)c1)=N2 [Example 67, 8-Chloro-7-dimethylamino-4-[3-(4-hydroxymethyl-pyrazol-1-yl)-phenyl]-1,3-dihydro-benzo[b][1,4]diazepin-2-one]",211 °C
10,"CN(C)c1cc2c(cc1C(F)(F)F)NC(=O)CC(c1cccc(-n3cc(CO)cn3)c1)=N2 [Example 68, 7-Dimethylamino-4-[3-(4-hydroxymethyl-pyrazol-1-yl)-phenyl]-8-trifluoromethyl-1,3-dihydro-benzo[b][1,4]diazepin-2-one]",175 °C
11,"Cc1noc(-c2cccc(C3=Nc4cc(N(C)C)c(C(F)(F)F)cc4NC(=O)C3)c2)c1CO [Example 69, 7-Dimethylamino-4-[3-(4-hydroxymethyl-3-methyl-isoxazol-5-yl)-phenyl]-8-trifluoromethyl-1,3-dihydro-benzo[b][1,4]diazepin-2-one]",207 to 208 °C
12,"CN(C)c1cc2c(cc1C(F)(F)F)NC(=O)CC(c1cccc(-c3nocc3CO)c1)=N2 [Example 70, 7-Dimethylamino-4-[3-(4-hydroxymethyl-isoxazol-3-yl)-phenyl]-8-trifluoromethyl-1,3-dihydro-benzo[b][1,4]diazepin-2-one]",217 to 219 °C
13,"CN(C)c1cc2c(cc1C(F)(F)F)NC(=O)CC(c1cccc(-c3c(CO)cnn3C)c1)=N2 [Example 72, 7-Dimethylamino-4-[3-(4-hydroxymethyl-2-methyl-2H-pyrazol-3-yl)-phenyl]-8-trifluoromethyl-1,3-dihydro-benzo[b][1,4]diazepin-2-one]",243 to 244 °C
14,"CN(C)c1cc2c(cc1Cl)NC(=O)CC(c1cccc(-n3cncn3)c1)=N2 [Example 73, 8-Chloro-7-dimethylamino-4-(3-[1,2,4]triazol-1-yl-phenyl)-1,3-dihydro-benzo[b][1,4]diazepin-2-one]",239 to 241 °C
15,"CN(C)c1cc2c(cc1C(F)(F)F)NC(=O)CC(c1cccc(-n3cncn3)c1)=N2 [Example 74, 7-Dimethylamino-4-(3-[1,2,4]triazol-1-yl-phenyl)-8-trifluoromethyl-1,3-dihydro-benzo[b][1,4]diazepin-2-one]",228 to 230 °C
16,"CN(C)c1cc2c(cc1C(F)(F)F)NC(=O)CC(c1cccc(C#N)c1)=N2 [Example 75, 3-(8-Dimethylamino-4-oxo-7-trifluoromethyl-4,5-dihydro-3H-benzo[b][1,4]diazepin-2-yl)-benzonitrile]",224 to 227 °C
